Measured values reported in patent US8202856B2 (Merck Serono SA, priority 2007, dated 2012).
Counter-ions that a name gives are not always drawn.

Target: S1P1 receptor (Homo sapiens, UniProt P21453)
Assay: 35S-GTPγS binding, membranes from CHO cells expressing S1P1
Format: biochemical
Conditions: CHO cell membranes expressing S1P1
Experimental: Receptor binding assay: Membranes were prepared from CHO cells expressing S1P1 or S1P3 for use in ligand and 35S-GTPTS binding studies. Cells were suspended in 50 mM TRIS, pH 7.4, 2 mM EDTA, 250 mM Sucrose (buffer A) and 1× Complete protease inhibitor cocktail (Roche), and disrupted at 4° C. by nitrogen decompression using a cell disruption bomb (Parr Instrument). Following centrifugation at 1000 RPM for 10 min at 4° C., the supernatant was suspended in buffer A and centrifuged again at 19000 RPM for 60 min at 4° C. The pellet was then suspended in 10 mM HEPES, pH 7.4, 1 mM EDTA, 250 mM Sucrose (Buffer B), and 1× Complete EDTA-free protease inhibitor cocktail and homogenized using a potter. Membranes were flash frozen in liquid nitrogen and stored at −80° C. [33P]sphingosine 1-phosphate (3000 Ci/mmol; American Radiolabeled Chemicals, Inc.) was added to test compounds in DMSO. Membranes and WGA SPA beads (GE Healthcare) were added to give a final volume of 100 μl in 96-well plates with assay concentrations of […] [33P]sphingosine 1-phosphate (respectively for S1P1 or S1P3), 50 mM HEPES, pH 7.5, 5 mM MgCl2, 100 mM NaCl, 0.4% fatty acid-free BSA, 1-5 μg/well of proteins and 100 μg/well of WGA SPA beads. Binding was performed for 60 min at room temperature on a shaker and bound radioactivity was measured on a PerkinElmer 1450 MicroBeta counter. Specific binding was calculated by subtracting remaining radioactivity in the presence of 1000-fold excess of unlabeled S1P. Binding data were analyzed using the GraphPad Prism program.
Measurements of ^35S-GTPγS Binding: Membranes (1 to 10 μg protein) prepared as described above, were incubated in 96-well Scintiplates (PerkinElmer) with test compounds diluted in DMSO, in 180 μl of 20 mM HEPES, pH 7.4, 10 mM MgCl2, 2 μg/well Saponin, 0.2% fatty acid free BSA (Assay buffer), 140 mM NaCl and 1.7 μM GDP. The assay was initiated with the addition of 20 μl of 1.5 nM [35S]-GTPγS (1100 Ci/mmol; GE Healthcare) in assay buffer. After 60 min incubation at 30° C. on a shaker, plates were centrifuged for 10 min at 2000 RPM. Supernatant was discarded and membrane bound radioactivity was measured on a PerkinElmer 1450 MicroBeta counter. Triplicate samples were averaged and expressed as response relative to S1P activation in absence of compound (n=2).

S1P1 receptor, sequence (P21453 whole entry): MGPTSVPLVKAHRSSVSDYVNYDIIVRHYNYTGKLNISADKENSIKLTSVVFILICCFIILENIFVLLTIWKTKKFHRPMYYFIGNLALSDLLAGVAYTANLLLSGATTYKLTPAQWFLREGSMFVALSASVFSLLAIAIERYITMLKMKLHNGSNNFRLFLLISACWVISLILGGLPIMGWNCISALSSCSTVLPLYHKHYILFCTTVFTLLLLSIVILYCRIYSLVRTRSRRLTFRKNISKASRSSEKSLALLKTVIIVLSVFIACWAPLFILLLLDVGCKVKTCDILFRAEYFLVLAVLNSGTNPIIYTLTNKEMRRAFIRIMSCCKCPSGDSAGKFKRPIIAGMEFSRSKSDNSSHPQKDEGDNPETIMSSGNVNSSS

| EC50 [nM] | Structure (SMILES) |
| --- | --- |
| 90 | CC(=O)N1CCc2cc(-c3noc(-c4nnn(-c5ccccc5F)c4-c4ccncc4)n3)ccc21 [Example 153, 1-acetyl-5-{5-[1-(2-fluorophenyl)-5-pyridin-4-yl-1H-1,2,3-triazol-4-yl]-1,2,4-oxadiazol-3-yl}indoline] |
| 246 | NC(=O)C1CCN(Cc2ccc(-c3noc(-c4nnn(-c5ccccc5F)c4-c4ccncc4)n3)cc2)CC1 [Example 115, 11-(4-{5-[1-(2-fluorophenyl)-5-pyridin-4-yl-1H-1,2,3-triazol-4-yl]-1,2,4-oxadiazol-3-yl}benzyl)piperidine-4-carboxamide] |
| 758 | OC1CCN(Cc2cccc(-c3noc(-c4nnn(-c5ccccc5F)c4-c4ccncc4)n3)c2)C1 (centres unmarked) [Example 134, 1-(3-{5-[1-(2-fluorophenyl)-5-pyridin-4-yl-1H-1,2,3-triazol-4-yl]-1,2,4-oxadiazol-3-yl}benzyl)pyrrolidin-3-ol] |
| 402 | Fc1ccccc1-n1nnc(-c2nc(-c3ccc(C(F)(F)F)cc3)no2)c1-c1ccncc1 [Example 109, 4-(1-(2-fluorophenyl)-4-{3-[4-(trifluoromethyl)phenyl]-1,2,4-oxadiazol-5-yl}-1H-1,2,3-triazol-5-yl)pyridine] |
| 31 | OCCNCc1ccc(-c2noc(-c3nnn(-c4ccccc4F)c3-c3ccncc3)n2)cc1 [Example 136, 2-[(4-{5-[1-(2-fluorophenyl)-5-pyridin-4-yl-1H-1,2,3-triazol-4-yl]-1,2,4-oxadiazol-3-yl}benzyl)amino]ethanol] |
| 80 | O=C(O)[C@H]1CC[C@@H](NCc2ccc(-c3noc(-c4nnn(-c5ccccc5F)c4-c4ccncc4)n3)cc2)CC1 [Example 163] |
| 223 | CC(=O)NC1CCN(Cc2ccc(-c3noc(-c4nnn(-c5ccccc5F)c4-c4ccncc4)n3)cc2)CC1 [Example 137, N-[1-(4-{5-[1-(2-fluorophenyl)-5-pyridin-4-yl-1H-1,2,3-triazol-4-yl]-1,2,4-oxadiazol-3-yl}benzyl)piperidin-4-yl]acetamide] |
| 340 | Fc1ccccc1-n1nnc(-c2nc(-c3cccc(C(F)(F)F)c3)no2)c1CN1CCOCC1 [Example 151, 4-[(1-(2-fluorophenyl)-4-{3-[3-(trifluoromethyl)phenyl]-1,2,4-oxadiazol-5-yl}-1H-1,2,3-triazol-5-yl)methyl]morpholine] |
| 11 | CN(C)Cc1ccc(-c2noc(-c3nnn(-c4ccccc4F)c3-c3ccncc3)n2)cc1 [Example 131, 1-(4-{5-[1-(2-fluorophenyl)-5-pyridin-4-yl-1H-1,2,3-triazol-4-yl]-1,2,4-oxadiazol-3-yl}phenyl)-N,N-dimethylmethanamine] |
| 17 | Fc1ccccc1-n1nnc(-c2nc(-c3cccc(C(F)(F)F)c3)no2)c1-c1ccncc1 [Example 103, 4-(1-(2-fluorophenyl)-4-{3-[3-(trifluoromethyl)phenyl]-1,2,4-oxadiazol-5-yl}-1H-1,2,3-triazol-5-yl)pyridine] |
| 806 | Fc1ccc(F)c(-c2noc(-c3nnn(-c4ccccc4F)c3CNCC3CC3)n2)c1 [Example 112, 1-cyclopropyl-N-{[4-[3-(2,5-difluorophenyl)-1,2,4-oxadiazol-5-yl]-1-(2-fluorophenyl)-1H-1,2,3-triazol-5-yl]methyl}methanamine] |
| 230 | NCc1cccc(-c2noc(-c3nnn(-c4ccccc4F)c3-c3ccncc3)n2)c1 [Example 125, 1-(3-{5-[1-(2-fluorophenyl)-5-pyridin-4-yl-1H-1,2,3-triazol-4-yl]-1,2,4-oxadiazol-3-yl}phenyl)methanamine hydrochloride] |
| 508 | Fc1ccccc1-n1nnc(-c2nc(-c3cccc(CN4CCC4)c3)no2)c1-c1ccncc1 [Example 148, 4-[4-{3-[3-(azetidin-1-ylmethyl)phenyl]-1,2,4-oxadiazol-5-yl}-1-(2-fluorophenyl)-1H-1,2,3-triazol-5-yl]pyridine formate] |
| 18 | OC1CN(Cc2ccc(-c3noc(-c4nnn(-c5ccccc5F)c4-c4ccncc4)n3)cc2)C1 [Example 135, 1-(4-{5-[1-(2-fluorophenyl)-5-pyridin-4-yl-1H-1,2,3-triazol-4-yl]-1,2,4-oxadiazol-3-yl}benzyl)azetidin-3-ol] |
| 74 | OC1CCN(Cc2ccc(-c3noc(-c4nnn(-c5ccccc5F)c4-c4ccncc4)n3)cc2)CC1 [Example 141, 1-(4-{5-[1-(2-fluorophenyl)-5-pyridin-4-yl-1H-1,2,3-triazol-4-yl]-1,2,4-oxadiazol-3-yl}benzyl)piperidin-4-ol] |
| 118 | OCC1CCN(Cc2ccc(-c3noc(-c4nnn(-c5ccccc5F)c4-c4ccncc4)n3)cc2)CC1 [Example 139, [1-(4-{5-[1(2-fluorophenyl)-5-pyridin-4-yl-1H-1,2,3-triazol-4-yl]-1,2,4-oxadiazol-3-yl}benzyl)piperidin-4-yl]methanol] |
| 646 | CNCc1cccc(-c2noc(-c3nnn(-c4ccccc4F)c3-c3ccncc3)n2)c1 [Example 133, 1-(3-{5-[1-(2-fluorophenyl)-5-pyridin-4-yl-1H-1,2,3-triazol-4-yl]-1,2,4-oxadiazol-3-yl}phenyl)-N-methylmethanamine formate] |

Further lines, the molecule ahead of its results:

| Structure (SMILES) | EC50 [nM] |
| --- | --- |
| Cc1c(-c2nc(-c3cc(F)ccc3F)no2)nnn1-c1ccccc1F [Example 2, 3-[2,5-Difluorophenyl)-5-[1-(2-fluorophenyl)-5-methyl-1H-1,2,3-triazole-4-yl]-1,2,4-oxadiazole] | 1130 |
| COCc1c(-c2nc(-c3cccc(S(N)(=O)=O)c3)no2)nnn1-c1ccccc1F [Example 93, 3-{5-[1-(2-fluorophenyl)-5-(methoxymethyl)-1H-1,2,3-triazol-4-yl]-1,2,4-oxadiazol-3-yl}benzenesulfonamide] | 754 |
| Cc1cc(CCC(=O)O)ccc1-c1noc(-c2nnn(-c3ccccc3F)c2-c2ccccc2)n1 [Example 30, 3-(4-{5-[1-(2-Fluorophenyl)-5-phenyl-1H-1,2,3-triazole-4-yl]-1,2,4-oxadiazole-3-yl}-3-methylphenyl)propanoic acid] | 709 |
| Fc1ccccc1-n1nnc(-c2nc(-c3cccc(Br)c3)no2)c1-c1ccncc1 [Example 100, 4-[4-[3-(3-bromophenyl)-1,2,4-oxadiazol-5-yl]-1-(2-fluorophenyl)-1H-1,2,3-triazol-5-yl]pyridine] | 18 |
| Fc1ccccc1-n1nnc(-c2nc(-c3c(F)cccc3F)no2)c1-c1ccncc1 [Example 99, 4-[4-[3-(2,6-difluorophenyl)-1,2,4-oxadiazol-5-yl]-1-(2-fluorophenyl)-1H-1,2,3-triazol-5-yl]pyridine] | 106 |
| Fc1ccccc1-n1nnc(-c2nc(-c3ccccc3)no2)c1-c1ccncc1 [Example 95, 4-[1-(2-fluorophenyl)-4-(3-phenyl-1,2,4-oxadiazol-5-yl)-1H-1,2,3-triazol-5-yl]pyridine] | 13 |
| COCc1c(-c2nc(-c3cccc4[nH]ccc34)no2)nnn1-c1ccccc1F [Example 90, 4-{5-[1-(2-fluorophenyl)-5-(methoxymethyl)-1H-1,2,3-triazol-4-yl]-1,2,4-oxadiazol-3-yl}-1H-indole] | 204 |
| Fc1ccccc1-n1nnc(-c2nc(-c3ccccn3)no2)c1-c1ccncc1 [Example 45, 2-{5-[1-(2-fluorophenyl)-5-pyridin-4-yl-1H-1,2,3-triazol-4-yl]-1,2,4-oxadiazol-3-yl}pyridine] | 2170 |
| Fc1ccccc1-c1noc(-c2nnn(-c3ccccc3F)c2Cc2ccccc2)n1 [Example 58, 5-[5-benzyl-1-(2-fluorophenyl)-1H-1,2,3-triazol-4-yl]-3-(2-fluorophenyl)-1,2,4-oxadiazole] | 1160 |
| COCc1c(-c2nc(-c3ccccc3OC)no2)nnn1-c1ccccc1F [Example 50, 5-[1-(2-fluorophenyl)-5-(methoxymethyl)-1H-1,2,3-triazol-4-yl]-3-(2-methoxyphenyl)-1,2,4-oxadiazole] | 443 |
| COCc1c(-c2nc(-c3ccc(CN)cc3)no2)nnn1-c1ccccc1F [Example 81, 1-(4-{5-[1-(2-fluorophenyl)-5-(methoxymethyl)-1H-1,2,3-triazol-4-yl]-1,2,4-oxadiazol-3-yl}phenyl)methanamine] | 236 |
| COc1cc(CCC(=O)O)ccc1-c1noc(-c2nnn(-c3ccccc3F)c2-c2ccccc2)n1 [Example 29, 3-(4-{5-[1-(2-Fluorophenyl)-5-phenyl-1H-1,2,3-triazole-4-yl]-1,2,4-oxadiazole-3-yl}-3-methoxyphenyl)propanoic acid] | 1270 |
